The text below walks through data of patent publication US20130189727A1, “Methods And Compositions For Cellular Imaging And Cancer Cell Detection Using Light Harvesting Conjugated Polymer-Biomolecular Conjugates” (NATIONAL UNIVERSITY OF SINGAPORE, priority 2010, published 2013).

Like-named read-outs stand apart in the source and are kept apart here. {NH2} = amino group (5'-NH2) on the aptamer

The nature of data set [1]: Photostability in stained cells under continuous laser scanning (CLSM). The following applies: excitation at 405 nm; MCF-7 cells. It is filed as physicochemical. The method, then: FIG. 2 is time-resolved confocal laser scanning microscopy (CLSM) fluorescence images of SKBR-3 breast cancer cells stained by affibody-attached P2 under laser scanning for (a) 0 min and (b) 15 minutes.
FIG. 8 is confocal image of Hela cells under continuous excitation (λmax=488 nm) after 0 min (A) and 15 min (B) and the fluorescence/transmission overlapped images of the corresponding cells (C, D) taken after incubation with P3-phalloidin for 2 h at 0.5 μM.
I0 is the initial fluorescence intensity of the sample […].
Targeted fluorescence imaging of HER2-positive cancer cells using a P2-affibody conjugate was investigated. […]
To explore the potential of the CPE-g-PEG molecular brush in long-term clinical applications, the photostability and cytotoxicity of P4.1 were investigated. Changes in the CLSM images of P4.1-stained MCF-7 cells under continuous laser scanning were monitored to evaluate the photostability of P4.1 in cells. […] In comparison, most commercial dyes (such as fluorescein, rhodamine and Cy5) usually lose their fluorescence within 3 minutes under CLSM laser illumination. […]
The uptake of HCPEPEI-1/DNA and HCPEPEI-2/DNA polyplexes by COS-7 cells was monitored using confocal lasing scanning microscopy (CLSM). […] The dual modal HCPEPEIs fluorescent gene vectors could facilitate in tracking the delivery of genes due to the intrinsic fluorescence from the HCPE core. […]

Data set [2] deals with T1, lysozyme (Gallus gallus, UniProt P00698).
T1 construct: Hen egg white lysozyme, BSA, and human trypsin were ordered from Sigma-Aldrich; purchased Sigma-Aldrich; host or cells: hen egg white
Nature of the data set: Aptamer/lysozyme binding affinity (Kd). Details: species or system Hen. As to the method: The LOD is estimated to be 0.36 μg/mL (2.4 pmol, based on 3σ from six independent measurements) using a standard fluorometer, which is more sensitive to aptamer-based electrochemical and fluorescent arrays and is similar to that obtained from a standard of ELISA. (See Vidal, M. L., et al., Agric. Food Chem. 2005, 53, 2379-2385, the entire teachings of which are incorporated herein by reference). However, the strategy of using Apt-NP as a platform for lysozyme detection reduces the bonding affinity (Kd) of the aptamer to its target. […] (See, for example, Cox, J. C.; Ellington, A. D., Bioorg. Med. Chem. 2001, 9, 2525-2531, the entire teachings are incorporated herein by reference). The large Kd on the NP surface is detrimental to assay sensitivity, could be the result of: (1) the steric hindrance induced by the folded aptamer upon binding to lysozyme which prevents the adjacent aptamers from folding into G-quartet structure; (2) the binding of lysozyme on the Apt-NP surface hampers subsequent aptamer/lysozyme binding due to electrostatic repulsion.

Data set [3] has as its target T1, lysozyme. The following applies: in solution; read-out: Kd measured in solution; cited from earlier work.

T1 sequence (P00698 19-147): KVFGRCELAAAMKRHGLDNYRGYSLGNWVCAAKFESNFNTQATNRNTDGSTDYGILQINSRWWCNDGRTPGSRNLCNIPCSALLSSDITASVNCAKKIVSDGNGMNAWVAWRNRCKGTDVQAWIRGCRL

With “Poly[9,9-bis(2-(2-(2-methoxyethoxy)ethoxy)ethyl)fluorenevinylene-alt-9,9-bis(4-sulfonatobutyl)fluorenevinylene Sodium Salt] [PFVSO3]”, the water solubility entry was “approximately 20 mg/mL”.
Turning to `O=C1OC2(c3ccc(O)cc3Oc3cc(O)ccc32)c2ccc(N=C=S)cc21` [FITC], in data set [1], the “decrease of fluorescence intensity after continuous excitation” value is recorded as roughly 56%.
As to “5′-NH2-ATCTACGAATTCATCAGGGCTAAAGAGTGCAGAGTTACTTAG (ATCTACGAATTCATCAGGGCTAAAGAGTGCAGAGTTACTTAG; 5' {NH2}, sugars by position and backbone not given here) [aptamer]”, the “apparent Kd” value in the data set with lysozyme [2] (aptamer on silica NP surface, lysozyme concentration at half-maximum signal) is listed as “approximately 9 μg/mL”. The Kd with lysozyme [2] (aptamer on silica NP surface, lysozyme concentration at half-maximum signal, read-out: apparent Kd) is roughly 0.625 µM; with lysozyme [3] it was 0.031 µM. The “Kd on NP surface relative to Kd in solution” value with lysozyme [2] (larger) is recorded as 20 fold.
